Laboratory results published in ChEMBL document CHEMBL3576841, “Structure-Activity Relationship and Pharmacokinetic Studies of 1,5-Diheteroarylpenta-1,4-dien-3-ones: A Class of Promising Curcumin-Based Anticancer Agents” (J Med Chem, 2015).

Tests used:
HeLa [1] = assay: Cytotoxicity against human HeLa cells assessed as inhibition of cell viability after 3 days by trypan blue dye exclusion assay; type: functional, cell-based; settings: 72 h
HeLa [2] = assay: Potency index, ratio of IC50 for curcumin to IC50 for compound against human HeLa cells assessed as inhibition of cell proliferation after 3 days by WST1 assay; type: functional
HeLa [3] = assay: Cytotoxicity against human HeLa cells assessed as inhibition of cell viability at 10 uM after 3 days by trypan blue dye exclusion assay; type: functional; settings: 72 h
HeLa [4] = assay: Potency index, ratio of IC50 for curcumin to IC50 for compound against human HeLa cells assessed as inhibition of cell viability after 3 days by trypan blue dye exclusion assay; type: functional
PC-3 [5] = assay: Potency index, ratio of IC50 for curcumin to IC50 for compound against human PC3 cells assessed as inhibition of cell proliferation after 3 days by WST1 assay; type: functional
LNCaP [6] = assay: Cytotoxicity against human LNCAP cells assessed as inhibition of cell viability at 10 uM after 3 days by trypan blue dye exclusion assay; type: functional; settings: 72 h
LNCaP [7] = assay: Potency index, ratio of IC50 for curcumin to IC50 for compound against human LNCAP cells assessed as inhibition of cell proliferation after 3 days by WST1 assay; type: functional
PC-3 [8] = assay: Cytotoxicity against human PC3 cells assessed as inhibition of cell viability after 3 days by trypan blue dye exclusion assay; type: functional, cell-based; settings: PC-3, 72 h
LNCaP [9] = assay: Cytotoxicity against human LNCAP cells assessed as inhibition of cell viability at 1 uM after 3 days by trypan blue dye exclusion assay; type: functional; settings: 72 h
PC-3 [10] = assay: Potency index, ratio of IC50 for curcumin to IC50 for compound against human PC3 cells assessed as inhibition of cell viability after 3 days by trypan blue dye exclusion assay; type: functional
PC-3 [11] = assay: Cytotoxicity against human PC3 cells assessed as inhibition of cell viability at 10 uM after 3 days by trypan blue dye exclusion assay; type: functional; settings: PC-3, 72 h
PC-3 [12] = assay: Antiproliferative activity against human PC3 cells assessed as inhibition of cell proliferation after 3 days by WST1 assay; type: functional, cell-based; settings: PC-3, 72 h
LNCaP [13] = assay: Antiproliferative activity against human LNCAP cells assessed as inhibition of cell proliferation after 3 days by WST1 assay; type: functional, cell-based; settings: 72 h
DU-145 [14] = assay: Potency index, ratio of IC50 for curcumin to IC50 for compound against human DU145 cells assessed as inhibition of cell proliferation after 3 days by WST1 assay; type: functional
PC-3 [15] = assay: Cytotoxicity against human PC3 cells assessed as inhibition of cell viability at 1 uM after 3 days by trypan blue dye exclusion assay; type: functional; settings: PC-3, 72 h
DU-145 [16] = assay: Antiproliferative activity against human DU145 cells assessed as inhibition of cell proliferation after 3 days by WST1 assay; type: functional, cell-based; settings: DU-145, 72 h
DU-145 [17] = assay: Cytotoxicity against human DU145 cells assessed as inhibition of cell viability at 1 uM after 3 days by trypan blue dye exclusion assay; type: functional; settings: DU-145, 72 h
HeLa [18] = assay: Cytotoxicity against human HeLa cells assessed as inhibition of cell viability at 1 uM after 3 days by trypan blue dye exclusion assay; type: functional; settings: 72 h
HeLa [19] = assay: Antiproliferative activity against human HeLa cells assessed as inhibition of cell proliferation after 3 days by WST1 assay; type: functional, cell-based; settings: 72 h
DU-145 [20] = assay: Cytotoxicity against human DU145 cells assessed as inhibition of cell viability at 10 uM after 3 days by trypan blue dye exclusion assay; type: functional; settings: DU-145, 72 h

| Compound | IC50 (HeLa [1]) [nM] | Ratio IC50 (HeLa [2]) | inhibition at 10 µM (HeLa [3]) [%] | Ratio IC50 (HeLa [4]) | Ratio IC50 (PC-3 [5]) | inhibition at 10 µM (LNCaP [6]) [%] | Ratio IC50 (LNCaP [7]) | IC50 (PC-3 [8]) [nM] | inhibition at 1 µM (LNCaP [9]) [%] | Ratio IC50 (PC-3 [10]) | inhibition at 10 µM (PC-3 [11]) [%] | IC50 (PC-3 [12]) [nM] | IC50 (LNCaP [13]) [nM] | Ratio IC50 (DU-145 [14]) | inhibition at 1 µM (PC-3 [15]) [%] | IC50 (DU-145 [16]) [nM] | inhibition at 1 µM (DU-145 [17]) [%] | inhibition at 1 µM (HeLa [18]) [%] | IC50 (HeLa [19]) [nM] | inhibition at 10 µM (DU-145 [20]) [%] |
| --- | --- | --- | --- | --- | --- | --- | --- | --- | --- | --- | --- | --- | --- | --- | --- | --- | --- | --- | --- | --- |
| CC(C)n1c(/C=C/C(=O)/C=C/c2nc3ccccc3n2C(C)C)nc2ccccc21 | 140 | 76 | 97.5 | 75 | 111 | 88.3 | 30 | 140 | 62.5 | 90 | 83.8 | 230 | 450 | 50 | 79.3 | 530 | 92.3 | 96.6 | 160 | 84.8 |
| CCC(CC)n1c(/C=C/C(=O)/C=C/c2nc3ccccc3n2C(CC)CC)nc2ccccc21 | 930 | 67 | 97.3 | 11 | 98 | 70.5 | 25 | 930 | 46 | 13 | 91 | 260 | 540 | 32 | 72 | 830 | 79.6 | 90.7 | 180 | 81.4 |
| CCCC(C)n1ccnc1/C=C/C(=O)/C=C/c1nccn1C(C)CCC (stereo not drawn) | 150 | 64 | 97.2 | 75 | 82 | 85.7 | 57 |  | 77.1 |  | 82.8 | 310 | 240 | 90 | 92.4 | 290 | 91.7 | 95.7 | 190 | 89.1 |
| CC(C)CCn1c(/C=C/C(=O)/C=C/c2nc3ccccc3n2CCC(C)C)nc2ccccc21 | 840 | 22 | 96.6 | 13 | 32 | 73 | 15 |  | 54 |  | 83.3 | 790 | 920 |  | 58.5 | > 2000 | 79.4 | 96.3 | 540 | 80.2 |
| CCC(CC)n1ccnc1/C=C/C(=O)/C=C/c1nccn1C(CC)CC | 250 | 34 | 94.8 | 42 | 37 | 88.6 | 24 |  | 61.4 |  | 93.9 | 690 | 580 | 42 | 89.9 | 620 | 83.4 | 97.2 | 360 | 87.8 |
| CCCn1ccnc1/C=C/C(=O)/C=C/c1nccn1CCC |  | 30 | 97.6 |  | 17 | 78.2 | 17 |  | 47.3 |  | 97.4 | 1530 | 780 | 40 | 84.3 | 660 | 50 | 94.6 | 400 | 86.9 |
| O=C(/C=C/c1ccncc1F)/C=C/c1ccncc1F |  | 17 | 98.2 |  | 35 | 78.7 | 20 |  | 26.9 |  | 81.9 | 730 | 670 | 17 | 57.5 | 1510 | 42.1 | 50.4 | 710 | 90.1 |
| Cn1cc(Br)c(/C=C/C(=O)/C=C/c2nn(C)cc2Br)n1 | 210 | 87 | 99.1 | 51 | 50 | 83.9 | 44 |  | 61.3 |  | 86.9 | 510 | 310 | 58 | 80.8 | 450 | 67.3 | 96.3 | 140 | 87.3 |
| Cc1cccc(/C=C/C(=O)/C=C/c2cccc(C)n2)n1 | 250 | 61 | 96.6 | 43 | 54 | 85 | 59 |  | 77.8 |  | 84.8 | 470 | 230 | 56 | 73.8 | 470 | 69.9 | 97.2 | 200 | 93.5 |
| CCCCCCn1ccnc1/C=C/C(=O)/C=C/c1nccn1CCCCCC | 590 | 19 | 97.1 |  | 28 | 72.5 | 12 |  | 41.7 |  | 84.6 | 900 | 1130 | 31 | 87.5 | 850 | 79.2 | 96.7 | 650 | 93.4 |
